The source of these data is ChEMBL document CHEMBL1201862, “PubChem BioAssay data set” (2004).

Test [1] deals with T1, Sphingosine 1-phosphate receptor 4 (Homo sapiens, UniProt O95977).
T1 sequence (O95977 whole entry): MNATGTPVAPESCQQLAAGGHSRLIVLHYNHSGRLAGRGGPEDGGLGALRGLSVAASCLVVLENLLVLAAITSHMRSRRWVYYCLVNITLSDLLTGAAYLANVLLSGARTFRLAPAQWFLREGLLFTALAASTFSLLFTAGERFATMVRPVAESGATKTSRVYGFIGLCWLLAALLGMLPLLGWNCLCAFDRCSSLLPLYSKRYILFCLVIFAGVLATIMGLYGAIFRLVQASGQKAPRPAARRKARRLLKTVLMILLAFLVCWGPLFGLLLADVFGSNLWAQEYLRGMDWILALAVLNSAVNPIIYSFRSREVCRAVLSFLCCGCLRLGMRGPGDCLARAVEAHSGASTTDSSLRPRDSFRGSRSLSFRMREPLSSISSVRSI
As to the kind of experiment: Late-stage fluorescence dose response cell-based assay to identify agonists of the Sphingosine 1-Phosphate Receptor 4 (S1P4): purchased compounds EC50. [Related pubchem assays (depositor defined):AID1509, AID1523, AID1563, AID1686, AID1701, AID1801]. It counts as functional.

A further test has as its target Hexokinase HKDC1 (Homo sapiens, UniProt Q2TB90). As to the kind of experiment: activation of HKDC1 glucose phosphorylation – biochemical, W721R variant, dose response (AID 504730). In kind it is functional.
Test [2] concerns the target Luciferin 4-monooxygenase (Photinus pyralis, UniProt P08659). As to the kind of experiment: inhibition of purified Photinus pyralis luciferase – biochemical, luminescence, dose response (AID 1891).
Test [3] can be described thus: Luminescence Cell-Based Dose Confirmation HTS to Identify Inhibitors of Platelet Dense Granule Release. [Related pubchem assays: 1663 (Primary HTS), 1678 (Summary of Project)]. It counts as functional.
The target in test [4] is T2, Rac GTPase-activating protein 1 (Homo sapiens, UniProt Q9H0H5).
T2 sequence (Q9H0H5 whole entry): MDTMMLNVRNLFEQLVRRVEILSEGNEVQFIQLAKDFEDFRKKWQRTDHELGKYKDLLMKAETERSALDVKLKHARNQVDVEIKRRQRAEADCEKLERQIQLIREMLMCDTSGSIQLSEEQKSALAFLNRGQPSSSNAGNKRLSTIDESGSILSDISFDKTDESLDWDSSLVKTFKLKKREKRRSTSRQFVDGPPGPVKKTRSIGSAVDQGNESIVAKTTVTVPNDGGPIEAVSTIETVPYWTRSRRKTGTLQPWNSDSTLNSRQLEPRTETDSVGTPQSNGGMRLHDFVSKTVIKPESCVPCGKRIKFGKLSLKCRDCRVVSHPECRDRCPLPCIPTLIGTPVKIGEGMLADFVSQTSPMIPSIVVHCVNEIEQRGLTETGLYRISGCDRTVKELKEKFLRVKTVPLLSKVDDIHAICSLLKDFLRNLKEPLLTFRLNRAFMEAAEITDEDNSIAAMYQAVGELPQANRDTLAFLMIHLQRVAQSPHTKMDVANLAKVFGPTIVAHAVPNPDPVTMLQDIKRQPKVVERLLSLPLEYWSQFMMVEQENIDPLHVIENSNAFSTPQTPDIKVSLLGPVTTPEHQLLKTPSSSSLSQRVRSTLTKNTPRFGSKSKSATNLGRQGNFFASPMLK
The test is described as follows: blockers of MgcRacGAP-driven Rac1 GTP hydrolysis – biochemical, ADP Hunter fluorescence, primary and confirmatory, confirmation (AID 624330). In kind it is functional.

In the next test the target is Hexokinase-1 (Homo sapiens, UniProt P19367). The test is described as follows: HK1 enzyme activation by HKDC1 hits – biochemical, selectivity assay for HKDC1 activator project, dose response (AID 504762). In kind it is functional.
Another test deals with Nonstructural protein 1 (Influenza A virus, UniProt Q194T2). In kind it is functional, Influenza A virus (A/California/07/2009(H1N1)).
Test [5] in a line: viability loss in HeLa cells – cytotoxicity control for MgcRacGAP inhibitor project, dose response (AID 624300). It counts as functional.
Test [6] concerns the target DNA dC->dU-editing enzyme APOBEC-3G (Homo sapiens, UniProt Q9HC16). It counts as functional.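 Also: Dose-response counterscreen measuring inhibition of APOBEC3G DNA deaminase activity, run while confirming APOBEC3A inhibitors.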
For test [7], the target named is DNA dC->dU-editing enzyme APOBEC-3A (Homo sapiens, UniProt P31941). The test is described as follows: Dose Response confirmation of small molecule APOBEC3A DNA Deaminase Inhibitors via a fluorescence-based single-stranded DNA deaminase assay. [Related pubchem assays (depositor defined):AID493011, AID493024]. It counts as functional.
The target of test [8] is T3, Heat shock factor protein 1 (Mus musculus, UniProt P38532).
T3 sequence (P38532 whole entry): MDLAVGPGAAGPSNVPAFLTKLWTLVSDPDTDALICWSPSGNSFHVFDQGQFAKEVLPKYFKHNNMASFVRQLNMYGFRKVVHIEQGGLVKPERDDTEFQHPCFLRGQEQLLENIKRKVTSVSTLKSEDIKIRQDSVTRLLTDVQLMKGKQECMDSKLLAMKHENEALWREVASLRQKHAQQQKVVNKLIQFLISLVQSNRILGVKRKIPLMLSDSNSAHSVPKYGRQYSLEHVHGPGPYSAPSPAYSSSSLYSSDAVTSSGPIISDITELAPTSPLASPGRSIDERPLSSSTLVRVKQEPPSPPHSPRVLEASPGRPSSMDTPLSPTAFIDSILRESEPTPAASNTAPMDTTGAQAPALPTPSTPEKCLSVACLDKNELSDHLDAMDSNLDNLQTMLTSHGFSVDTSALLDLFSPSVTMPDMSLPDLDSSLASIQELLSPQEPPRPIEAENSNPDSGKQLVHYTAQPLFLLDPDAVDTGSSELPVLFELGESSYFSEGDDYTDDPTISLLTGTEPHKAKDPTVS
The test is described as follows: decrease of HSF1-responsive luciferase luminescence – cell-based, NIH3T3, dose retest, confirmation (AID 2382).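 Also: NIH3T3 fibroblasts with HSF1-driven luciferase reporter stressed by proteasome inhibitor MG132; luminescence from HSF1-driven luciferase expression after 8 hours of MG132 stress.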 In kind it is functional.

For test [9], the target named is T4, Carboxy-terminal domain RNA polymerase II polypeptide A small phosphatase 1 (Homo sapiens, UniProt Q9GZU7).
T4 sequence (Q9GZU7 whole entry): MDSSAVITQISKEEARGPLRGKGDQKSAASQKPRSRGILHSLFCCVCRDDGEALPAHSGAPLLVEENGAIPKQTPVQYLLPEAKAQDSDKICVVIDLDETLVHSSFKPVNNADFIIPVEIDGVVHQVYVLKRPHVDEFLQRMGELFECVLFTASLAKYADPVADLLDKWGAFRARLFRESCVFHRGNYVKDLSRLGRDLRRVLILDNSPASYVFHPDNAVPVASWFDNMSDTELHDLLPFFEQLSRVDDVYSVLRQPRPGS
The test is described as follows: CTDSP1 inhibitors, concentration-response, biochemical, absorbance readout, ultra-high-throughput screen actives (AID 540297). In kind it is functional.

A further test concerns the target Troponin, cardiac muscle (Homo sapiens, UniProt P19429+P45379+P63316). The test is described as follows: Fluorescence-based biochemical high throughput dose response assay for activators of the calcium sensitivity of cardiac Regulated Thin Filaments (RTF). [Related pubchem assays (depositor defined):AID493008, AID493018, AID504382, AID504383]. In kind it is protein-complex assay.

The source made the active and inactive calls.

What is called EC50 is the concentration giving half of the maximal effect. As a reminder, the IC50 is the concentration needed to halve the response being measured. A word on the CC50: it is the concentration giving 50% cytotoxicity.

Sequence of DNA dC->dU-editing enzyme APOBEC-3G (Q9HC16 whole entry): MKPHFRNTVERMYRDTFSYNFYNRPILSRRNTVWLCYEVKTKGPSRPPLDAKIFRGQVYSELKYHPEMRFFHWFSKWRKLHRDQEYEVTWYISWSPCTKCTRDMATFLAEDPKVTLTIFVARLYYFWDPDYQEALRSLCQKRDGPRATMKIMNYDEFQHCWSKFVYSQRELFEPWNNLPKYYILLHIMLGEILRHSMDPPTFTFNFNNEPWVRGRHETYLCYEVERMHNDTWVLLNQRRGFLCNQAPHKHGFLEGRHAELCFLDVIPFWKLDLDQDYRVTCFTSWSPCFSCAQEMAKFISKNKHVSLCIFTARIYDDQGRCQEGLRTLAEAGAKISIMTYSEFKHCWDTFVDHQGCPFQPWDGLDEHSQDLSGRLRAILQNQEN
Sequence of Hexokinase HKDC1 (Q2TB90 whole entry): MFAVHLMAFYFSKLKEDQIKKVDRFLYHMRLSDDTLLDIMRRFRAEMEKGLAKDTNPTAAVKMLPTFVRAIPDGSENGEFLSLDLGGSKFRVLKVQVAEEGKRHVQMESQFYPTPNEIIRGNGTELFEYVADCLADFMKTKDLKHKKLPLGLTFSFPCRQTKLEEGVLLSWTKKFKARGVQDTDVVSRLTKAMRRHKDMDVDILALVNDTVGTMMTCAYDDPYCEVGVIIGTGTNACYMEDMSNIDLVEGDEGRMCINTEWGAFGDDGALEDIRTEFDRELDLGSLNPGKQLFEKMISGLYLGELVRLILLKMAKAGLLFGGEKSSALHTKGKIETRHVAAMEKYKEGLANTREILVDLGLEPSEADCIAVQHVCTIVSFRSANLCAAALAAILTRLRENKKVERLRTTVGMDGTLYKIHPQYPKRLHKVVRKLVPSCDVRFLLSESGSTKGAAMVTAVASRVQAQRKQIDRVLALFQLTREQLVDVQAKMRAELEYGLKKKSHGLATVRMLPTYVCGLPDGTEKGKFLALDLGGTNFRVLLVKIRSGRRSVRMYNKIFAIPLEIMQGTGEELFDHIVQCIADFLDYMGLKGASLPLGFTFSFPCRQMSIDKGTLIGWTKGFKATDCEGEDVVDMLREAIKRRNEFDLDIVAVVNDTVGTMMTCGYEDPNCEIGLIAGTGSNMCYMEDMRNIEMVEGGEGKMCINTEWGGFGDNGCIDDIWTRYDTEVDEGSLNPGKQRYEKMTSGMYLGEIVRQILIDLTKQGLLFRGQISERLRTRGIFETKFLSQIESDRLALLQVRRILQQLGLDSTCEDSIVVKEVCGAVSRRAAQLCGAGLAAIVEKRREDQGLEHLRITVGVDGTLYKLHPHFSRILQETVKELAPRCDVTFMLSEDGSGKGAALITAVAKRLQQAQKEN
Sequence of Hexokinase-1 (P19367 whole entry): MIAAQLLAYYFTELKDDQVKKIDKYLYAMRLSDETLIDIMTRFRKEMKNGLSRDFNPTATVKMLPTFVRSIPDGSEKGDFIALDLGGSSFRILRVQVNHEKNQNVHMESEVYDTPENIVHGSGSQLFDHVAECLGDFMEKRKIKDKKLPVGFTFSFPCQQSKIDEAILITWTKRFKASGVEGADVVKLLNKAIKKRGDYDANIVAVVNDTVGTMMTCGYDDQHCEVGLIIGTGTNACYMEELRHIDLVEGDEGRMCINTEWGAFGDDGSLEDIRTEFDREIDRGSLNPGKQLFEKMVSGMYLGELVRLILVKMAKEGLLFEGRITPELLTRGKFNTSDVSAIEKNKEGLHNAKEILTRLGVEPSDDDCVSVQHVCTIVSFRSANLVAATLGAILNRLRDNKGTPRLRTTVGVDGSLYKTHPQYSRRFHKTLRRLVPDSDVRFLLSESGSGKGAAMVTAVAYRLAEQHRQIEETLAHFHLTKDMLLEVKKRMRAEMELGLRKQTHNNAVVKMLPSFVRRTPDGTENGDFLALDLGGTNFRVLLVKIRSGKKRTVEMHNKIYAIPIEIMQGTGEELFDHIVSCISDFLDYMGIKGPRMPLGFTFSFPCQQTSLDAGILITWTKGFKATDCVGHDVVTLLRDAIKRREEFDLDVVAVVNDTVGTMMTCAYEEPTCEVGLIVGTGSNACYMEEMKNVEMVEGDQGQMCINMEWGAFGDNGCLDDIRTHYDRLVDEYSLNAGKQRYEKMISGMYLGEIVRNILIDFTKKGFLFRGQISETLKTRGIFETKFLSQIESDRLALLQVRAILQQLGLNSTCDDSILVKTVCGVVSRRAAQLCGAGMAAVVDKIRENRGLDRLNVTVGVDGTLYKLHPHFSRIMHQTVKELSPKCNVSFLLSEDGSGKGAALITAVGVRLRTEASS
Sequence of DNA dC->dU-editing enzyme APOBEC-3A (P31941 whole entry): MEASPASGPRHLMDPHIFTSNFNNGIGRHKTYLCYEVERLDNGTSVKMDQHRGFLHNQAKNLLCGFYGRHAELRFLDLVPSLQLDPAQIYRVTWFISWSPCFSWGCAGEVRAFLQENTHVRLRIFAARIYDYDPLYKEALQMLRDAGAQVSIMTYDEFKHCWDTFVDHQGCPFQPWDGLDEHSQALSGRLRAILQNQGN
Sequence of Nonstructural protein 1 (Q194T2 whole entry): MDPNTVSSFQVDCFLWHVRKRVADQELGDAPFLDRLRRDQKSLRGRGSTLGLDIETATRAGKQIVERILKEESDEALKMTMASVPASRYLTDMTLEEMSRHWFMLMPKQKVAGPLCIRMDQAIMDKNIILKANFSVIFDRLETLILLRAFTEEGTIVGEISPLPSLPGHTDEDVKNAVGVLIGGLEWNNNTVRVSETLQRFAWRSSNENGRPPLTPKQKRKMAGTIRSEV
Sequence of Luciferin 4-monooxygenase (P08659 whole entry): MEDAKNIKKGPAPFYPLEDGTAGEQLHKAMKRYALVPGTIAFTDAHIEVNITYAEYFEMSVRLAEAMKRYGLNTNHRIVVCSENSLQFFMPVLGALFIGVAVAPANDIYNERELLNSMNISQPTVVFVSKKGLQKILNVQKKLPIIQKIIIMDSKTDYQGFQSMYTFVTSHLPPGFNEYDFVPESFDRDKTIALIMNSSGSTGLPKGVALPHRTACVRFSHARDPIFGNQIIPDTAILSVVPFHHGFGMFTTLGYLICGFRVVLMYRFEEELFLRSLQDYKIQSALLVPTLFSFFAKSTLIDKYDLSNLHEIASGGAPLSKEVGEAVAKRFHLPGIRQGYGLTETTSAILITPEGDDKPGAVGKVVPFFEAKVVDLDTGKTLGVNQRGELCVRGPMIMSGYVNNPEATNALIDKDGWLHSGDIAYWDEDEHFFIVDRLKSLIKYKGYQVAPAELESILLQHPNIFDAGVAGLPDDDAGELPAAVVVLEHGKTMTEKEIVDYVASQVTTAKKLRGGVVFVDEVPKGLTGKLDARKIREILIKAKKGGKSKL

For the molecule `Cc1nn(Cc2ccccc2)c(Cl)c1C(=O)OC(C)C#N` (stereo not drawn), the EC50 in test [1] is > 50 µM (inactive).
In the case of `Cc1nonc1C(=O)N/N=C/c1ccc(O)cc1O`, the EC50 at Hexokinase HKDC1 was > 80 µM (inactive); in test [2] it was 0.667 µM (active); in test [3], 0.136 µM (active); at Hexokinase-1, > 80 µM (inactive). Also, the results for the IC50 (in [4]; at Nonstructural protein 1) were 69.4 µM (active) and 4.75 µM (active), respectively. For the same molecule, the CC50 in [5] was 100 µM (active).
`C[N+]1(CC2COC(c3ccco3)O2)CCCCC1` (stereo not drawn): the IC50 in [6] was 3.34 µM (active); in test [7], 3.15 µM (active); in test [9], 3.23 µM (active). Also, the EC50 in test [8] is listed as > 195 µM (not active).
As to `O=C(NC1CCCCC1)c1cccc2c1C(=O)c1ccc(N3CCCC3)cc1S2(=O)=O`, on Troponin, cardiac muscle, the EC50 was 6.65 µM (active).
